Experimental data as given in the NIST ThermoML archive (doi:10.1021/je900882r).

Experiments:
[1] = mn = molality of the nth substance listed, in mol/kg; conditions: 298.15 K, 101 kPa, Liquid
[2] = refractive index (Na D-line) (dimensionless); mn = molality of the nth substance listed, in mol/kg; conditions: 298.15 K, 101 kPa, Liquid
[3] = cn = amount concentration of the nth substance listed, in mol/dm3; conditions: 298.15 K, 101 kPa, Liquid; for molar conductivity: Alternating current cell with electrodes; for viscosity: Capillary tube (Ostwald / Ubbelohde) method

CCCCn1cc[n+](C)c1.[Br-] [1-butyl-3-methylimidazolium bromide] + O
Conditions | mass density, [1] [kg/m3] | refractive index, [2]
m1 = 0.0909 | 1001.54 | 1.3357
m1 = 0.0915 | 1001.77 | 1.3359
m1 = 0.097 | 1001.97 | 1.336
m1 = 0.1797 | 1005.97 | 1.3382
m1 = 0.1833 | 1006.34 | 1.3388
m1 = 0.185 | 1006.46 | 1.339
m1 = 0.267 | 1010.2 | 1.3407
m1 = 0.2863 | 1011.4 | 1.3416
m1 = 0.2866 | 1011.29 | 1.3414
m1 = 0.3496 | 1014.39 | 1.343
m1 = 0.3564 | 1014.36 | 1.3433
m1 = 0.3651 | 1014.07 | 1.3437

NCC(=O)O [2-aminoacetic acid] + O
Conditions | mass density [kg/m3] | molar conductivity [S·m2/mol] | viscosity [mPa·s]
[1], m1 = 0.0521 | 998.7 | – | –
[1], m1 = 0.0997 | 1000.21 | – | –
[1], m1 = 0.1577 | 1002.02 | – | –
[1], m1 = 0.1992 | 1003.32 | – | –
[1], m1 = 0.2235 | 1004.07 | – | –
[1], m1 = 0.2902 | 1006.11 | – | –
[1], m1 = 0.3266 | 1007.22 | – | –
[1], m1 = 0.4495 | 1010.93 | – | –
[1], m1 = 0.5179 | 1012.94 | – | –
[3], c1 = 0.0007166 | – | 0.0153 | –
[3], c1 = 0.001486 | – | 0.0148 | –
[3], c1 = 0.002275 | – | 0.0146 | –
[3], c1 = 0.003892 | – | 0.0145 | –
[3], c1 = 0.00566 | – | 0.0142 | –
[3], c1 = 0.007383 | – | 0.0139 | –
[3], c1 = 0.00904 | – | 0.0137 | –
[3], c1 = 0.0116 | – | 0.0135 | –
[3], c1 = 0.01431 | – | 0.0132 | –
[3], c1 = 0.01747 | – | 0.0129 | –
[3], c1 = 0.02104 | – | 0.0126 | –
[3], c1 = 0.02475 | – | 0.0123 | –
[3], c1 = 0.052 | – | – | 0.881
[3], c1 = 0.0997 | – | – | 0.892
[3], c1 = 0.158 | – | – | 0.91
[3], c1 = 0.1999 | – | – | 0.92
[3], c1 = 0.2244 | – | – | 0.929
[3], c1 = 0.292 | – | – | 0.939
[3], c1 = 0.3289 | – | – | 0.945
[3], c1 = 0.4544 | – | – | 0.965
[3], c1 = 0.5246 | – | – | 0.98

[2], Standard Abbe refractometry
Conditions | refractive index
m1 = 0.0941 | 1.3333
m1 = 0.1492 | 1.3339
m1 = 0.1972 | 1.3345
m1 = 0.2611 | 1.3354
m1 = 0.2975 | 1.3359
m1 = 0.303 | 1.336
m1 = 0.3935 | 1.337
m1 = 0.4408 | 1.3376

C[C@H](N)C(=O)O [(S)-2-aminopropanoic acid] + O
Conditions | mass density [kg/m3] | molar conductivity [S·m2/mol] | viscosity [mPa·s]
[1], m1 = 0.0499 | 998.55 | – | –
[1], m1 = 0.0849 | 999.6 | – | –
[1], m1 = 0.1397 | 1001.23 | – | –
[1], m1 = 0.1784 | 1002.37 | – | –
[1], m1 = 0.2346 | 1004.02 | – | –
[1], m1 = 0.2731 | 1005.13 | – | –
[1], m1 = 0.3275 | 1006.7 | – | –
[1], m1 = 0.3551 | 1007.46 | – | –
[1], m1 = 0.4168 | 1009.23 | – | –
[1], m1 = 0.4513 | 1010.16 | – | –
[3], c1 = 0.0007166 | – | 0.0153 | –
[3], c1 = 0.001486 | – | 0.0148 | –
[3], c1 = 0.002275 | – | 0.0146 | –
[3], c1 = 0.003892 | – | 0.0145 | –
[3], c1 = 0.00566 | – | 0.0142 | –
[3], c1 = 0.007383 | – | 0.0139 | –
[3], c1 = 0.00904 | – | 0.0137 | –
[3], c1 = 0.0116 | – | 0.0135 | –
[3], c1 = 0.01431 | – | 0.0132 | –
[3], c1 = 0.01747 | – | 0.0129 | –
[3], c1 = 0.02104 | – | 0.0126 | –
[3], c1 = 0.02475 | – | 0.0123 | –
[3], c1 = 0.0532 | – | – | 0.886
[3], c1 = 0.091 | – | – | 0.891
[3], c1 = 0.1498 | – | – | 0.897
[3], c1 = 0.1918 | – | – | 0.902
[3], c1 = 0.2526 | – | – | 0.912
[3], c1 = 0.2941 | – | – | 0.921
[3], c1 = 0.3537 | – | – | 0.928
[3], c1 = 0.3827 | – | – | 0.936
[3], c1 = 0.4512 | – | – | 0.951
[3], c1 = 0.4876 | – | – | 0.957

[2], Standard Abbe refractometry
Conditions | refractive index
m1 = 0.0533 | 1.3326
m1 = 0.091 | 1.333
m1 = 0.1496 | 1.3337
m1 = 0.1913 | 1.3342
m1 = 0.2516 | 1.335
m1 = 0.2926 | 1.3355
m1 = 0.3514 | 1.3362
m1 = 0.3799 | 1.3365
m1 = 0.4471 | 1.3374
m1 = 0.4827 | 1.3378

CC(C)[C@H](N)C(=O)O [L-valine] + O
Conditions | mass density [kg/m3] | molar conductivity [S·m2/mol] | viscosity [mPa·s]
[1], m1 = 0.1173 | 1000.17 | – | –
[1], m1 = 0.1402 | 1000.77 | – | –
[1], m1 = 0.1894 | 1002.03 | – | –
[1], m1 = 0.2512 | 1003.59 | – | –
[1], m1 = 0.2973 | 1004.74 | – | –
[1], m1 = 0.3211 | 1005.32 | – | –
[1], m1 = 0.3841 | 1006.84 | – | –
[1], m1 = 0.4378 | 1008.11 | – | –
[3], c1 = 0.0007166 | – | 0.0153 | –
[3], c1 = 0.001486 | – | 0.0148 | –
[3], c1 = 0.002275 | – | 0.0146 | –
[3], c1 = 0.003892 | – | 0.0145 | –
[3], c1 = 0.00566 | – | 0.0142 | –
[3], c1 = 0.007383 | – | 0.0139 | –
[3], c1 = 0.00904 | – | 0.0137 | –
[3], c1 = 0.0116 | – | 0.0135 | –
[3], c1 = 0.01431 | – | 0.0132 | –
[3], c1 = 0.01747 | – | 0.0129 | –
[3], c1 = 0.1173 | – | – | 0.892
[3], c1 = 0.1403 | – | – | 0.899
[3], c1 = 0.1898 | – | – | 0.906
[3], c1 = 0.2521 | – | – | 0.916
[3], c1 = 0.2987 | – | – | 0.938
[3], c1 = 0.3228 | – | – | 0.943
[3], c1 = 0.3867 | – | – | 0.958
[3], c1 = 0.4413 | – | – | 0.979

[2], Standard Abbe refractometry
Conditions | refractive index
m1 = 0.1173 | 1.3348
m1 = 0.1402 | 1.3353
m1 = 0.1894 | 1.3363
m1 = 0.2512 | 1.3375
m1 = 0.2973 | 1.3384
m1 = 0.3211 | 1.3389
m1 = 0.3841 | 1.3401
m1 = 0.4378 | 1.341
